Experimental data as given in US9132188B2, “Chemically Programmed Vaccination” (The Scripps Research Institute, priority 2009, dated 2015).

Tested on: CT26 tumors
Assay: Syngeneic colon cancer model, CT26 tumors in JW-KLH-immunized BALB/C mice
Assay type: in vivo
Conditions: 200 μL i.p. days 2-17; compared with PBS
Experimental: FIG. 5 illustrates inhibition of tumor growth in syngenic mice mediated by adaptor-targeted antibodies. […] Mice (six per group) were treated between days 2 and 17 with 200 μL i.p. injections of PBS alone, 60 μg/mL SCS-873 in PBS, or 27.5 μg/mL SCS-397 in PBS. Mean tumor volumes±SD were determined at 3-day intervals from 12 to 30 days post-grafting. […] Mice (six per group) were treated between days 2 and 17 with 200 μL i.p. injections of PBS alone, 77 μg/mL cRGD-dk in PBS, or 42.5 μg/mL cRGD in PBS. Mean tumor volumes±SD were determined at 3-day intervals from 12 to 30 days post-grafting. […] Mean tumor volumes±SD were determined at 3-day intervals from 12 to 24 days post-grafting. […] Mean tumor volumes±SD were determined at 3-day intervals from 12 to 24 days post-grafting.
On day 65, JW-KLH-immunized BALB/C mice were sorted (6 groups with 6 animals each) to form matched anti-JW titer groups and were inoculated s.c. into right flanks with 0.1 mL (2×10^5 cells/mouse) of CT26 cell suspension in PBS (day 0 for tumor model). […] Tumor volumes of treated animals were measured over the skin in two dimensions using a slide caliper every third day starting on day 12, and the tumor volume was calculated according to the following formula, ½(width)^2×length. Toxicity was monitored by determining the body weight of mice once a week. […]

Q: Which “growth of CT26 tumors (in words)” value does the source give for cyclo(Arg-Gly-Asp-D-Phe-Lys) [cRGD] here?
A: no more effective than treatment with PBS
